Results published in US8829029B2, “Dual modulators of 5HT2A and D3 receptors” (Hoffmann-La Roche Inc., priority 2008, dated 2014).

Tests used:
[1] = target: human D3 dopamine receptor (Homo sapiens (Human), UniProt P35462); assay: Radioligand binding ([3H]-spiperone) to cloned human D3 receptor expressed in HEK-293 EBNA cells; conditions: membranes of transfected HEK-293 EBNA cells, 0.5 nM [3H]-spiperone, 1 h at RT
Method in brief: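 Membranes from HEK-293 EBNA cells transiently transfected with human D3 receptor, incubated 1 h at RT with ~0.5 nM [3H]-spiperone and ten compound concentrations (10 μM-0.1 nM); nonspecific binding with 10 μM spiperone. Filtered, scintillation counted; IC50 from four-parameter fit, Ki via Cheng-Prusoff using saturation Kd.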

[2] = target: human 5-HT2A serotonin receptor (Homo sapiens (Human), UniProt P28223); assay: Radioligand binding ([3H]-ketanserin) to cloned human 5-HT2A receptor expressed in HEK-293 EBNA cells; conditions: membranes of transfected HEK-293 EBNA cells, 1.1 nM [3H]-ketanserin, 1 h at RT
Method in brief: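 Membranes from transiently transfected HEK-293 EBNA cells incubated 1 h at RT with 1.1 nM [3H]-ketanserin (5-HT2A, 15 μg protein/well, Tris/MgCl2/EGTA pH 7.4) or 0.5 nM [3H]-spiperone (D3, 7.5 μg/well, Tris/NaCl/MgCl2/KCl/CaCl2 pH 7.4) plus test compound at 10 μM-0.1 nM. Nonspecific binding with 10 μM spiperone; filtration, Ki via Cheng-Prusoff.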

human D3 dopamine receptor, sequence (P35462 whole entry): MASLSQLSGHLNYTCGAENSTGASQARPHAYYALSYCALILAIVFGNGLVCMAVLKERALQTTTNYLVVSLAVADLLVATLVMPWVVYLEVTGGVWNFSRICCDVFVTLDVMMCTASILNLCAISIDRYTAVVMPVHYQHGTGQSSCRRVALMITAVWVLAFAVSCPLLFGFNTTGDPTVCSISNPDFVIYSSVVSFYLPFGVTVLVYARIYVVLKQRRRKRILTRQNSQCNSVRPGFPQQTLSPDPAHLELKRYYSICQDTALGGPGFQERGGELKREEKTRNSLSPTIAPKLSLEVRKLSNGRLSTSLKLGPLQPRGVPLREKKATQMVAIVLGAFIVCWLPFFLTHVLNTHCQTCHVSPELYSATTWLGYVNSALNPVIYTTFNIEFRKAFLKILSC

SMILES: CC1(O)CCC(CC(=O)N[C@H]2CC[C@H](CCN3CCC(c4noc5cc(Cl)ccc45)CC3)CC2)CC1 (stereo partly drawn) [Example 45, N-trans(4-{2-[4-(6-Chloro-benzo[d]isoxazol-3-yl)-piperidin-1-yl]-ethyl}-cyclohexyl)-2-(4-hydroxy-4-methyl-cyclohexyl)-acetamide]
- Ki [1]: 7 nM
- Ki [2]: 15 nM

SMILES: CC(=O)N[C@H]1CC[C@H](CCN2CCC(c3noc4cc(Cl)ccc34)CC2)CC1 [Example 46, N-trans(4-{2-[4-(6-Chloro-benzo[d]isoxazol-3-yl)-piperidin-1-yl]-ethyl}-cyclohexyl)-acetamide]
- Ki [1]: 8.19 nM
- Ki [2]: 23.7 nM

SMILES: CCS(=O)(=O)N[C@H]1CC[C@H](CCN2CCC(c3noc4cc(F)ccc34)CC2)CC1 [Example 47, Ethanesulfonic acid (4-trans {2-[4-(6-fluoro-benzo[d]isoxazol-3-yl)-piperidin-1-yl]-ethyl}-cyclohexyl)-amide]
- Ki [1]: 5.85 nM
- Ki [2]: 1.66 nM

SMILES: O=S(=O)(N[C@H]1CC[C@H](CCN2CCC(c3noc4cc(F)ccc34)CC2)CC1)c1ccc(Cl)cc1 [Example 48, 4-Chloro-N-trans (4-{2-[4-(6-fluoro-benzo[d]isoxazol-3-yl)-piperidin-1-yl]-ethyl}-cyclohexyl)-benzenesulfonamide]
- Ki [1]: 5.87 nM
- Ki [2]: 5.13 nM

SMILES: COc1ccc(S(=O)(=O)N[C@H]2CC[C@H](CCN3CCC(c4noc5cc(F)ccc45)CC3)CC2)cc1 [Example 49, N-trans(4-{2-[4-(6-Fluoro-benzo[d]isoxazol-3-yl)-piperidin-1-yl]-ethyl}-cyclohexyl)-4-methoxy-benzenesulfonamide]
- Ki [1]: 3.72 nM
- Ki [2]: 4.39 nM

SMILES: N#CCC(=O)N[C@H]1CC[C@H](CCN2CCC(c3noc4cc(Cl)ccc34)CC2)CC1 [Example 51, N-trans-(4-{2-[4-(6-Chloro-benzo[d]isoxazol-3-yl)-piperidin-1-yl]-ethyl}-cyclohexyl)-2-cyano-acetamide]
- Ki [1]: 8.19 nM
- Ki [2]: 23.7 nM

SMILES: N#CCCC(=O)N[C@H]1CC[C@H](CCN2CCC(c3noc4cc(Cl)ccc34)CC2)CC1 [Example 52, N-trans-(4-{2-[4-(6-Chloro-benzo[d]isoxazol-3-yl)-piperidin-1-yl]-ethyl}-cyclohexyl)-3-cyano-propionamide]
- Ki [1]: 8.77 nM
- Ki [2]: 15.6 nM

SMILES: O=C(C[C@H]1CCCO1)N[C@H]1CC[C@H](CCN2CCC(c3noc4cc(Cl)ccc34)CC2)CC1 [Example 53, N-trans-(4-{2-[4-(6-Chloro-benzo[d]isoxazol-3-yl)-piperidin-1-yl]-ethyl}-cyclohexyl)-2-(R)-tetrahydro-furan-2-yl-acetamide]
- Ki [1]: 14.4 nM
- Ki [2]: 6.19 nM

SMILES: O=C(CC1CC1)N[C@H]1CC[C@H](CCN2CCC(c3noc4cc(Cl)ccc34)CC2)CC1 [Example 54, N-trans-(4-{2-[4-(6-Chloro-benzo[d]isoxazol-3-yl)-piperidin-1-yl]-ethyl}-cyclohexyl)-2-cyclopropyl-acetamide]
- Ki [1]: 3.21 nM
- Ki [2]: 13.1 nM

SMILES: O=C(CO)N[C@H]1CC[C@H](CCN2CCC(c3noc4cc(Cl)ccc34)CC2)CC1 [Example 55, N-trans-(4-{2-[4-(6-Chloro-benzo[d]isoxazol-3-yl)-piperidin-1-yl]-ethyl}-cyclohexyl)-2-hydroxy-acetamide]
- Ki [1]: 16.8 nM
- Ki [2]: 15 nM

SMILES: CS(=O)(=O)CC(=O)N[C@H]1CC[C@H](CCN2CCC(c3noc4cc(Cl)ccc34)CC2)CC1 [Example 56, N-trans-(4-{2-[4-(6-Chloro-benzo[d]isoxazol-3-yl)-piperidin-1-yl]-ethyl}-cyclohexyl)-2-methanesulfonyl-acetamide]
- Ki [1]: 14.8 nM
- Ki [2]: 15.2 nM

SMILES: O=C(CC1OCCCO1)N[C@H]1CC[C@H](CCN2CCC(c3noc4cc(Cl)ccc34)CC2)CC1 [Example 57, N-trans-(4-{2-[4-(6-Chloro-benzo[d]isoxazol-3-yl)-piperidin-1-yl]-ethyl}-cyclohexyl)-2-[1,3]dioxan-2-yl-acetamide]
- Ki [1]: 6.13 nM
- Ki [2]: 17.6 nM

SMILES: CO[C@H]1CC[C@H](CC(=O)N[C@H]2CC[C@H](CCN3CCC(c4noc5ccc(Cl)cc45)CC3)CC2)CC1 [Example 58, N-trans-(4-{2-[4-(5-Chloro-benzo[d]isoxazol-3-yl)-piperidin-1-yl]-ethyl}-cyclohexyl)-2-(4-methoxy-cyclohexyl)-acetamide]
- Ki [1]: 8.38 nM
- Ki [2]: 24.7 nM

SMILES: CS(=O)(=O)N[C@H]1CC[C@H](CCN2CCC(c3noc4ccc(F)cc34)CC2)CC1 [Example 59, N-trans-(4-{2-[4-(5-Fluoro-benzo[d]isoxazol-3-yl)-piperidin-1-yl]-ethyl}-cyclohexyl)-methanesulfonamide]
- Ki [1]: 7.98 nM
- Ki [2]: 27.5 nM

SMILES: COCCC(=O)N[C@H]1CC[C@H](CCN2CCC(c3noc4cc(Cl)c(F)cc34)CC2)CC1 [Example 60, N-trans-(4-{2-[4-(6-Chloro-5-fluoro-benzo[d]isoxazol-3-yl)-piperidin-1-yl]-ethyl}-cyclohexyl)-3-methoxy-propionamide]
- Ki [1]: 13.5 nM
- Ki [2]: 44 nM

SMILES: O=C(CC1CCCO1)N[C@H]1CC[C@H](CCN2CCC(c3noc4cc(Cl)c(F)cc34)CC2)CC1 (stereo partly drawn) [Example 61, N-trans-(4-{2-[4-(6-Chloro-5-fluoro-benzo[d]isoxazol-3-yl)-piperidin-1-yl]-ethyl}-cyclohexyl)-2-(tetrahydro-furan-2-yl)-acetamide]
- Ki [1]: 17.7 nM
- Ki [2]: 31 nM

SMILES: COCC(=O)N[C@H]1CC[C@H](CCN2CCC(c3noc4cc(F)c(F)cc34)CC2)CC1 [Example 62, N-trans-(4-{2-[4-(5,6-Difluoro-benzo[d]isoxazol-3-yl)-piperidin-1-yl]-ethyl}-cyclohexyl)-2-methoxy-acetamide]
- Ki [1]: 32.7 nM
- Ki [2]: 10.5 nM

SMILES: CO[C@@H]1CC[C@@H](CC(=O)N[C@H]2CC[C@H](CCN3CCC(c4noc5cc(F)c(F)cc45)CC3)CC2)C1 [Example 63, N-trans-(4-{2-[4-(5,6-Difluoro-benzo[d]isoxazol-3-yl)-piperidin-1-yl]-ethyl}-cyclohexyl)-2-((1R,3R)-3-methoxy-cyclopentyl)-acetamide]
- Ki [1]: 20 nM
- Ki [2]: 13.2 nM

SMILES: CO[C@H]1CC[C@H](CC(=O)N[C@H]2CC[C@H](CCN3CCC(c4noc5cc(F)c(F)cc45)CC3)CC2)CC1 [Example 64, N-trans-(4-{2-[4-(5,6-Difluoro-benzo[d]isoxazol-3-yl)-piperidin-1-yl]-ethyl}-cyclohexyl)-2-(4-methoxy-cyclohexyl)-acetamide]
- Ki [1]: 17.3 nM
- Ki [2]: 7.67 nM

SMILES: COCCC(=O)N[C@H]1CC[C@H](CCN2CCC(c3noc4cc(F)c(F)cc34)CC2)CC1 [Example 65, N-trans-(4-{2-[4-(5,6-Difluoro-benzo[d]isoxazol-3-yl)-piperidin-1-yl]-ethyl}-cyclohexyl)-3-methoxy-propionamide]
- Ki [1]: 11.4 nM
- Ki [2]: 12.9 nM

SMILES: CC(=O)N[C@H]1CC[C@H](CCN2CCC(c3noc4cc(F)c(F)cc34)CC2)CC1 [Example 66, N-trans-(4-{2-[4-(5,6-Difluoro-benzo[d]isoxazol-3-yl)-piperidin-1-yl]-ethyl}-cyclohexyl)-acetamide]
- Ki [1]: 11.4 nM
- Ki [2]: 17.7 nM

SMILES: O=C(CO)N[C@H]1CC[C@H](CCN2CCC(c3noc4cc(F)c(F)cc34)CC2)CC1 [Example 67, N-trans-(4-{2-[4-(5,6-Difluoro-benzo[d]isoxazol-3-yl)-piperidin-1-yl]-ethyl}-cyclohexyl)-2-hydroxy-acetamide]
- Ki [1]: 19.9 nM
- Ki [2]: 11.8 nM
